In patent US7173023B2, “Bicyclic compounds” (Hoffmann-La Roche Inc., priority 2003, dated 2007):

Tests used:
[1] = target: T1, human MAO-B (Homo sapiens, UniProt P27338); assay: MAO-B enzymatic activity, spectrophotometric assay (tyramine, Amplex Red); format: biochemical; conditions: membranes of EBNA cells transfected with human MAO-B cDNA; 30 min preincubation at 37° C., pH 7.4; substrate tyramine
T1 construct: expressed in transfected cells; host or cells: EBNA cells (transient transfection); cell membranes used
T1 sequence (P27338 1-520): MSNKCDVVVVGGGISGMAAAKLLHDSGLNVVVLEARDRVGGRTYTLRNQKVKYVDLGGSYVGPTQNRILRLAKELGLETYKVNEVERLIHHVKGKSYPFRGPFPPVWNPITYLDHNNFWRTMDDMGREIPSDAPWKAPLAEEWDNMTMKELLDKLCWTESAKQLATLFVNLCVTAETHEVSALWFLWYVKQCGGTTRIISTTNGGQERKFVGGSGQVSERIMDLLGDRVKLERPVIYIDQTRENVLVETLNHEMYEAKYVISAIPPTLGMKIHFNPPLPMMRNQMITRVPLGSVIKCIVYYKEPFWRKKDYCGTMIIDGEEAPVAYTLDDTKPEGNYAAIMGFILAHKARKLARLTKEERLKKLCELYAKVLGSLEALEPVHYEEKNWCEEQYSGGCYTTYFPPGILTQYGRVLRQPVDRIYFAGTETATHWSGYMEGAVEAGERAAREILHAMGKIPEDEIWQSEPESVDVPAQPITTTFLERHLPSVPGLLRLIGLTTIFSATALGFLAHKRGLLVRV
Procedure: (§1) The cDNA's encoding human MAO-A and MAO-B were transiently transfected into EBNA cells using the procedure described by Schlaeger and Christensen [Cytotechnology 15:1–13 (1998)]. After transfection, cells were homogenised by means of a Polytron homogenizer in 20 mM Tris HCl buffer, pH 8.0, containing 0.5 mM EGTA and 0.5 mM phenylmethanesulfonyl fluoride. Cell membranes were obtained by centrifugation at 45,000×g and, after two rinsing step with 20 mM Tris HCl buffer, pH 8.0, containing 0.5 mM EGTA, membranes were eventually re-suspended in the above buffer and aliquots stored at −80° C. until use.
(§2) MAO-A and MAO-B enzymatic activity was assayed in 96-well-plates using a spectrophotometric assay adapted from the method described by Zhou and Panchuk-Voloshina [Analytical Biochemistry 253:169–174 (1997)]. Briefly, membrane aliquots were incubated in 0.1 M potassium phosphate buffer, pH 7.4, for 30 min at 37° C. with or without various concentrations of the compounds. After this period, the enzymatic reaction was started by the addition of the MAO substrate tyramine together with 1 U/ml horse-radish peroxidase (Roche Biochemicals) and 80 μM N-acetyl-3,7,-dihydroxyphenoxazine (Amplex Red, Molecular Probes). The samples were further incubated for 30 min at 37° C. in a final volume of 200 μl and absorbance was then determined at a wavelength of 570 nm using a SpectraMax plate reader (Molecular Devices). Background (non-specific) absorbance was determined in the presence of 10 μM clorgyline for MAO-A or 10 μM L-deprenyl for MAO-B.
(§3) IC50 values were determined from inhibition curves obtained using nine inhibitor concentrations in duplicate, by fitting data to a four parameter logistic equation using a computer program.

[2] = target: T2, human MAO-A (Homo sapiens, UniProt P21397); assay: MAO-A enzymatic activity, spectrophotometric assay (tyramine, Amplex Red); format: biochemical; conditions: membranes of EBNA cells transfected with human MAO-A cDNA; 30 min preincubation at 37° C., pH 7.4; substrate tyramine
T2 construct: expressed in transfected cells; host or cells: EBNA cells (transient transfection); cell membranes used
T2 sequence (P21397 1-527): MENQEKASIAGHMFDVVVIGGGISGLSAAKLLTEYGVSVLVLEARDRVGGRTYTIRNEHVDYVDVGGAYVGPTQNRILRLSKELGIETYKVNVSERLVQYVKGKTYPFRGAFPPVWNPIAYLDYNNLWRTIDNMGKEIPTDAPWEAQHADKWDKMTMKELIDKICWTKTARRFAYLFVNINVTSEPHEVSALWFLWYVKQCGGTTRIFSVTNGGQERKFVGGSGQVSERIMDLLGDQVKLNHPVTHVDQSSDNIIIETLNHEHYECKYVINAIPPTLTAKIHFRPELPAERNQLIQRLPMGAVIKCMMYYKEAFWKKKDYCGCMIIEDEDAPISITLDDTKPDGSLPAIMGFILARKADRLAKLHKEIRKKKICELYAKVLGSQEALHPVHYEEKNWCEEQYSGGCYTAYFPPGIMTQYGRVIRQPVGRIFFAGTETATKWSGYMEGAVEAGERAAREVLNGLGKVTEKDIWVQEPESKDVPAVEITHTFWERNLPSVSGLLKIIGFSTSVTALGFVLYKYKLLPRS
Procedure: as §1, §2, §3

IC50 [1] [µM] | IC50 [2] [µM] | Structure (SMILES)
0.021 | > 10 | NC(=O)N1CCc2ccc(OCc3cccc(F)c3)cc2CC1 [Example 8, 7-(3-Fluoro-benzyloxy)-1,2,4,5-tetrahydro-benzo[d]azepine-3-carboxylic Acid Amide]
0.15 | 4.6 | CN1C=Cc2ccc(OCc3cccc(F)c3)cc2CC1=O [Example 13, 8-(3-Fluoro-benzyloxy)-3-methyl-1,3-dihydro-benzo[d]azepin-2-one]
0.13 | > 9.5 | CC(=O)N1C=Cc2ccc(OCc3cccc(F)c3)cc2CC1=O [Example 15, 3-Acetyl-8-(3-fluoro-benzyloxy)-1,3-dihydro-benzo[d]azepin-2-one]

Continued, compound first:

Structure (SMILES) | IC50 [1] [µM] | IC50 [2] [µM]
CC(=O)N1CCc2ccc(OCc3cccc(F)c3)cc2CC1 [Example 1, 1-[7-(3-Fluoro-benzyloxy)-1,2,4,5-tetrahydro-benzo[d]azepin-3-yl]-ethanone] | 0.082 | > 10
COCC(=O)N1CCc2ccc(OCc3cccc(F)c3)cc2CC1 [Example 2, 1-[7-(3-Fluoro-benzyloxy)-1,2,4,5-tetrahydro-benzo[d]azepin-3-yl]-2-methoxy-ethanone] | 0.073 | 5.5
NC(=O)C(=O)N1CCc2ccc(OCc3cccc(F)c3)cc2CC1 [Example 3, 2-[7-(3-Fluoro-benzyloxy)-1,2,4,5-tetrahydro-benzo[d]azepin-3-yl]-2-oxo-acetamide] | 0.024 | > 10
COC(=O)N1CCc2ccc(OCc3cccc(F)c3)cc2CC1 [Example 5, 7-(3-Fluoro-benzyloxy)-1,2,4,5-tetrahydro-benzo[d]azepine-3-carboxylic Acid Methyl Ester] | 0.068 | 4.5
O=CN1CCc2ccc(OCc3cccc(F)c3)cc2CC1 [Example 6, 7-(3-Fluoro-benzyloxy)-1,2,4,5-tetrahydro-benzo[d]azepine-3-carbaldehyde] | 0.007 | 4.1
